From US8748624B2, “Picolinamido-propanoic acid derivatives useful as glucagon receptor antagonists” (Janssen Pharmaceutica NV, priority 2011, dated 2014)

Assays:
[1] = biological target: human GCGR (Homo sapiens (Human), UniProt P47871); assay: Cellular functional assay, cAMP readout (glucagon-stimulated cAMP in HEK293 cells expressing human GCGR); format: cell-based; conditions: hGluc-1 HEK cells, LANCE TR-FRET, IC50 converted to Ki, average if tested more than once
How it was run: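 HEK293 cells stably transfected with full-length human GCGR were exposed to compound for 30 min before a 5-min challenge with […] (final) glucagon. Readout was TR-FRET (LANCE) cAMP versus standard curve; IC50s fitted by non-linear regression and converted to Ki values.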

[2] = biological target: human glucagon receptor (GCGR) (Homo sapiens (Human), UniProt P47871); assay: Inhibition of 125I-glucagon binding to membranes from HEK293 cells expressing the human glucagon receptor; conditions: membranes of hGluc-1 HEK cells, 125I-glucagon 0.3 nM, 2 hours room temperature; IC50 converted to Ki; average if tested more than once
How it was run: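 Compound displacement of ¹²⁵I-glucagon (0.3 nM) was run for 2 h at room temperature in 50 mM HEPES pH 7.4 with 5 mM MgCl2, 1 mM CaCl2 and 0.2% BSA, using 6 μg/well membranes from stably transfected hGCGR HEK293 cells. Filter-bound counts gave IC50s, expressed as Ki.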

Sequence of human GCGR (P47871 26-477): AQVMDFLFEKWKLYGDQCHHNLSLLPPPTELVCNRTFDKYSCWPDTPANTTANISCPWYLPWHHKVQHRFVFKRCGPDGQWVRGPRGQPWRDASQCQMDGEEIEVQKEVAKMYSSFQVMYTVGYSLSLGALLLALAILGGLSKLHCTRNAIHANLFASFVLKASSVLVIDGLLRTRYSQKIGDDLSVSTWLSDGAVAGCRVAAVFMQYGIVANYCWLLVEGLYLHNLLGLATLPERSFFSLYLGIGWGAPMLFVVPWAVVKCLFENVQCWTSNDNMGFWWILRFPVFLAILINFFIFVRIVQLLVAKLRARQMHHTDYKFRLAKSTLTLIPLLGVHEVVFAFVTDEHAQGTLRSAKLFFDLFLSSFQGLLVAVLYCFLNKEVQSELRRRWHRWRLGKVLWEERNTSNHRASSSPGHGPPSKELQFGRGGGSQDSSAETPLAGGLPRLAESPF
Sequence of human glucagon receptor (GCGR) (P47871 26-477): as above

Compound	Ki [1] [nM]	Ki [2] [nM]
O=C(O)CCNC(=O)c1ccc(-c2cc(F)c(F)cc2C(=O)Nc2ccc(-c3ccc(F)cc3)cc2)cn1 [Compound 95, 3-(5-(4,5-difluoro-2-((4′-fluoro-[1,1′-biphenyl]-4-yl)carbamoyl)phenyl)picolinamido)propanoic acid]	600	139
Cc1cc(C(F)(F)F)ccc1-c1ccc(NCc2ccc(C(F)(F)F)cc2-c2ccc(C(=O)NCCC(=O)O)nc2)cc1 [Compound 30, 3-(5-(2-(((2′-methyl-4′-(trifluoromethyl)-[1,1′-biphenyl]-4-yl)amino)methyl)-5-(trifluoromethyl)phenyl)picolinamido)propanoic acid]	19.4	19.3
O=C(O)CCNC(=O)c1ccc(-c2cc(Cl)ccc2CNc2ccc(-c3ccc(Cl)cc3)c(Cl)c2)cn1 [Compound 10, 3-(5-(5-chloro-2-(((2,4′-dichloro-[1,1′-biphenyl]-4-yl)amino)methyl)phenyl)picolinamido)propanoic acid]	110	31.2
O=C(O)CCNC(=O)c1ccc(-c2cc(C(F)(F)F)ccc2CNc2ccc(-c3ccc(F)c(C(F)(F)F)c3)c(Cl)c2)cn1 [Compound 31, 3-(5-(2-(((2-chloro-4′-fluoro-3′-(trifluoromethyl)-[1,1′-biphenyl]-4-yl)amino)methyl)-5-(trifluoromethyl)phenyl)picolinamido)propanoic acid]	19.4	22.1
O=C(O)CCNC(=O)c1ccc(-c2cc(Cl)ccc2C(=O)Nc2ccc(-c3ccc(Cl)cc3)cc2)cn1 [Compound 16, 3-(5-(5-chloro-2-((4% chloro-[1,1′-biphenyl]-4-yl)carbamoyl)phenyl)picolinamido)propanoic acid]	50.5	43.8
O=C(O)CCNC(=O)c1ccc(-c2cc(Cl)ccc2CNc2ccc(-c3ccc(F)c(Cl)c3)c(Cl)c2)cn1 [Compound 171, 3-(5-(5-chloro-2-(((2,3′-dichloro-4′-fluoro-[1,1′-biphenyl]-4-yl)amino)methyl)phenyl)picolinamido)propanoic acid]	117	36
O=C(O)CCNC(=O)c1ccc(-c2cc(C(F)(F)F)c(Cl)cc2CNc2ccc(-c3ccc(Cl)cc3Cl)cc2)cn1 [Compound 82, 3-(5-(4-chloro-2-(((2′,4′-dichloro-[1,1′-biphenyl]-4-yl)amino)methyl)-5-(trifluoromethyl)phenyl)picolinamido)propanoic acid]	34.6	33.8
O=C(O)CCNC(=O)c1ccc(-c2cc(Cl)ccc2CNc2ccc(-c3ccc(OC(F)(F)F)cc3)c(Cl)c2)cn1 [Compound 140, 3-(5-(5-chloro-2-(((2-chloro-4′-(trifluoromethoxy)-[1,1′-biphenyl]-4-yl)amino)methyl)phenyl)picolinamido)propanoic acid]	84.3	21.5
O=C(O)CCNC(=O)c1ccc(-c2cc(C(F)(F)F)ccc2CNc2ccc(-c3cccc(F)c3)cc2)cn1 [Compound 62, 3-(5-(2-(((3′-fluoro-[1,1′-biphenyl]-4-yl)amino)methyl)-5-(trifluoromethyl)phenyl)picolinamido)propanoic acid]	175	37.4
Cc1cc(Cl)ccc1-c1ccc(NCc2cc(Cl)c(C(F)(F)F)cc2-c2ccc(C(=O)NCCC(=O)O)nc2)cc1 [Compound 77, 3-(5-(4-chloro-2-(((4′-chloro-2′-methyl-[1,1′-biphenyl]-4-yl)amino)methyl)-5-(trifluoromethyl)phenyl)picolinamido)propanoic acid]	22.4	24.2
O=C(O)CCNC(=O)c1ccc(-c2cc(C(F)(F)F)ccc2CNc2ccc(-c3ccc(F)c(C(F)(F)F)c3)cc2)cn1 [Compound 26, 3-(5-(2-(((4′-fluoro-3′-(trifluoromethyl)-[1,1′-biphenyl]-4-yl)amino)methyl)-5-(trifluoromethyl)phenyl)picolinamido)propanoic acid]	175	29.6
Cc1cc(Cl)ccc1-c1ccc(NCc2ccc(Cl)cc2-c2ccc(C(=O)NCCC(=O)O)nc2)cc1 [Compound 148, 3-(5-(5-chloro-2-(((4′-chloro-2′-methyl-[1,1′-biphenyl]-4-yl)amino)methyl)phenyl)picolinamido)propanoic acid]	34	18.7
